Measurements taken from ChEMBL document CHEMBL1201862, “PubChem BioAssay data set” (2004).
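Exposure lasted 48 hours, with cells grown in 96-well plates and compounds tested at five concentrations. GI50 = concentration required for 50% inhibition of growth.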 The source made the active and inactive calls. Rule as the data show it: active = GI50 up to about 1.1 µM and inactive = higher.

Assays:
Test in all cases: inhibition of tumour cell growth, NCI panel, 48 h
A549 = system: A549
ACHN = system: ACHN
COLO 205 = system: COLO 205
HCT-116 = system: HCT-116
HOP-92 = system: HOP-92
HT-29 = system: HT-29
IGROV-1 = system: IGROV-1
KM12 = system: KM12
LXFL 529 = system: LXFL 529
MOLT-4 = system: MOLT-4
Malme-3M = system: Malme-3M
OVCAR-8 = system: OVCAR-8
RPMI-8226 = system: RPMI-8226
SF-539 = system: SF-539
SNB-75 = system: SNB-75
SW-620 = system: SW-620
NCI-H226 = system: NCI-H226

Measured: GI50

CCOC(=O)N1CCc2cc(OC)c(OC)c3c2C1CC3=O (centres undefined)
inactive: A549 > 100 µM | ACHN > 100 µM | COLO 205 > 100 µM | HCT-116 > 100 µM | HOP-92 > 100 µM | HT-29 > 100 µM | IGROV-1 > 100 µM | KM12 > 100 µM | LXFL 529 > 100 µM | MOLT-4 > 100 µM | Malme-3M > 100 µM | OVCAR-8 > 100 µM | RPMI-8226 > 100 µM | SF-539 > 100 µM | SNB-75 > 100 µM | SW-620 > 100 µM

O=P(O)(OCC(O)O)OCC(O)O
inactive: A549 > 100 µM | ACHN > 100 µM | COLO 205 > 100 µM | HCT-116 > 100 µM | HOP-92 > 100 µM | HT-29 > 100 µM | IGROV-1 > 100 µM | KM12 > 100 µM | LXFL 529 > 100 µM | MOLT-4 > 100 µM | Malme-3M > 100 µM | OVCAR-8 > 100 µM | RPMI-8226 > 100 µM | SF-539 > 100 µM | SNB-75 > 100 µM | SW-620 > 100 µM

Cc1ccc(C)c(NC(=O)CC/C(=N\NC(=O)C(N)=O)C(C)C(=O)c2ccc(O)cc2)c1 (centres undefined)
inactive: A549 > 100 µM | ACHN > 100 µM | COLO 205 > 100 µM | HCT-116 > 100 µM | HOP-92 > 100 µM | HT-29 > 100 µM | IGROV-1 > 100 µM | KM12 > 100 µM | LXFL 529 > 100 µM | MOLT-4 > 100 µM | Malme-3M > 100 µM | NCI-H226 > 100 µM | OVCAR-8 > 100 µM | SF-539 > 100 µM | SW-620 > 100 µM

C=CC(=O)NCCSCCCOC1(C(=O)O)CC(O)C(NC(C)=O)C(C(O)C(O)CO)O1 (centres undefined)
inactive: A549 > 100 µM | ACHN > 100 µM | COLO 205 > 100 µM | HCT-116 > 100 µM | HOP-92 > 100 µM | HT-29 > 100 µM | IGROV-1 > 100 µM | KM12 > 100 µM | LXFL 529 > 100 µM | MOLT-4 > 100 µM | Malme-3M > 100 µM | NCI-H226 > 100 µM | OVCAR-8 > 100 µM | RPMI-8226 > 100 µM | SF-539 > 100 µM | SW-620 > 100 µM

CCCCCCCCCCCCCCCCCC[N+](C)(C)Cc1ccc(C[N+](C)(C)CCCCCCCCCCCCCCCCCC)cc1
inactive: A549 13.6 µM | ACHN 10.4 µM | COLO 205 34.8 µM | HCT-116 14.2 µM | HOP-92 5.26 µM | HT-29 18.7 µM | IGROV-1 16.6 µM | KM12 12.4 µM | LXFL 529 2.51 µM | MOLT-4 21 µM | Malme-3M 24.3 µM | NCI-H226 5.53 µM | OVCAR-8 6.5 µM | RPMI-8226 15.6 µM | SNB-75 3.15 µM | SW-620 18.2 µM
